What was measured:
[1] = tested on: apo A-I expression in HepG2 cells; test: apo A-I mRNA expression in HepG2 cells (Northern blot); type: cell-based, human
Experimental: HepG2 cells were grown in DMEM medium supplemented with 10% fetal calf serum, penicillin/streptomycin, sodium pyruvate and nonessential amino acids and incubated at 37° C in a humidified 5% CO2/95% air atmosphere. […] Total RNA was extracted as previously described (Chomczynski et al., Anal. Biochem., 1987, 162 (1): 156-9) and quantified by Northern Blot hybridization (Peters, J. Biol. Chem., 1997, 272 (43): 27307-12) using human apo A-I and 28S as probes (Peters, J. Biol. Chem., 1997, 272 (43): 27307-12).
HepG2 cells were grown in DMEM medium supplemented with 10% fetal calf serum, penicillin/streptomycin, sodium pyruvate and nonessential amino acids and incubated at 37° C. in a humidified 5% CO2/95% air atmosphere. Total RNA was extracted as previously described (Chomczynski et al., Anal. Biochem., 1987, 162 (1): 156-9) and quantified by Northern Blot hybridization (Peters, J. Biol. Chem., 1997, 272 (43): 27307-12) using human apo A-I and 28S as probes (Peters, J. Biol. Chem., 1997, 272 (43): 27307-12).
(§1) HepG2 were cotransfected as described in example 5. Cellular mRNA was obtained as described above in example 2.

human apo A-I promoter = test: luciferase reporter under human apo A-I promoter fragments in HepG2 cells overexpressing hFXR; type: cell-based
Experimental: HepG2 cells were cotransfected by lipofection with 300 ng of pCDNA3-hFXR vector for FXR expression, 300 ng of pSG5-mRXRα vector and 1 μg of the indicated reporter vectors enabling expression of the luciferase reporter gene under the control of fragments −254/+91, −192/+91 and −40/+91 of the apo A-I promoter. […] Total DNA was adjusted to 2 μg using plasmid pBKS+. After a 3 hour transfection, cells were incubated in the culture medium with bile acids at the indicated concentrations for 36 hours.
HepG2 cells were transfected by lipofection with 300 ng of pCDNA3-hFXR vector for expression of hFXR and 1 μg of the indicated reporter vectors allowing expression of a luciferase reporter gene under the control wild type or mutated fragment −254/+91 of the human apo A-I gene promoter, under the control of the herpes simplex virus thymidine kinase promoter or under the control of three copies of site A or site C of the human apo A-I gene cloned upstream of the herpes simplex virus thymidine kinase promoter. […] The construct containing fragment −254/+91 of the apo A-I promoter in which site A is mutated was obtained by directed mutagenesis of site A, in the wild type construct, using the Quick Change Site directed mutagenesis kit (Stratagene, La Jolla, Calif., USA), oligonucleotide 5′-[…]-3′ (SEQ ID NO: 4) and the complementary oligonucleotide. The construct containing fragment −254/+91 of the apo A-I promoter in which site C is mutated was obtained by directed mutagenesis of site C, in the wild type construct, using the Quick Change Site directed mutagenesis kit (Stratagene, La Jolla, Calif., USA), oligonucleotide 5′-[…]-3′ (SEQ ID NO: 3) and the complementary oligonucleotide. The construct containing fragment −254/+91 of the apo A-I promoter in which sites A and C are mutated was obtained by directed mutagenesis of site A, in the Cmut construct, using the Quick Change Site directed mutagenesis kit (Stratagene, La Jolla, Calif., USA), oligonucleotide 5′-[…]-3′ (SEQ ID NO: 4) and the complementary oligonucleotide. The construct denoted TkpGL3 containing the herpes simplex virus thymidine kinase promoter cloned upstream of a luciferase reporter gene has been previously described (Raspé et al., J. Biol. Chem., 2001, 276 (4): 2865-2871). The C3TK construct containing three copies of site C of the human apo A-I promoter cloned upstream of the herpes simplex virus thymidine kinase promoter and the luciferase reporter gene was obtained by oriented cloning of three copies of the double-stranded oligonucleotide corresponding to the wild type site C sequence (SEQ ID NO: 1) into the SmaI site of vector TkpGL3. The A3TK construct containing three copies of site A of the human apo A-I promoter cloned upstream of the herpes simplex virus thymidine kinase promoter and the luciferase reporter gene was obtained by oriented cloning of three copies of the double-stranded oligonucleotide corresponding to the wild type site A sequence (SEQ ID NO: 2) into the SmaI site of vector TkpGL3. Total DNA was adjusted to 2 μg using plasmid pBKS+. After a 3 hour transfection, cells were incubated in the culture medium with the bile acids at the indicated concentrations for 36 hours.
as §1

[2] = tested on: site C of the human apo A-I promoter; test: luciferase reporter C3TK (three copies of site C upstream of TK promoter) in HepG2 cells overexpressing hFXR; type: cell-based
Experimental: (§2) HepG2 cells were transfected by lipofection with 300 ng of pCDNA3-hFXR vector for expression of hFXR and 1 μg of the indicated reporter vectors allowing expression of a luciferase reporter gene under the control wild type or mutated fragment −254/+91 of the human apo A-I gene promoter, under the control of the herpes simplex virus thymidine kinase promoter or under the control of three copies of site A or site C of the human apo A-I gene cloned upstream of the herpes simplex virus thymidine kinase promoter. […] The construct containing fragment −254/+91 of the apo A-I promoter in which site A is mutated was obtained by directed mutagenesis of site A, in the wild type construct, using the Quick Change Site directed mutagenesis kit (Stratagene, La Jolla, Calif., USA), oligonucleotide 5′-[…]-3′ (SEQ ID NO: 4) and the complementary oligonucleotide. The construct containing fragment −254/+91 of the apo A-I promoter in which site C is mutated was obtained by directed mutagenesis of site C, in the wild type construct, using the Quick Change Site directed mutagenesis kit (Stratagene, La Jolla, Calif., USA), oligonucleotide 5′-[…]-3′ (SEQ ID NO: 3) and the complementary oligonucleotide. […]

[3] = tested on: site A of the human apo A-I promoter; test: luciferase reporter A3TK (three copies of site A upstream of TK promoter) in HepG2 cells overexpressing hFXR; type: cell-based
Experimental: as §2

[4] = tested on: herpes simplex virus thymidine kinase promoter; test: luciferase reporter TkpGL3 (TK promoter only) in HepG2 cells overexpressing hFXR; type: cell-based, human; details: overexpression of hFXR, CDCA
Experimental: as §2

[5] = tested on: mice transgenic for the human apo A-I gene; details: diet rich in TCA 0.5% m/m, one week
Description: Effect of TCA on Plasma Concentrations of Cholesterol and Apo A-I and on Hepatic Expression of apo A-I in Mice Transgenic for the Human apo A-I Gene (FIG. 1)
Example 1 illustrates the effect of a diet rich in taurocholate on serum cholesterol and human apo A-I levels and on lipid profile and hepatic expression of human apo A-I in transgenic mice expressing the apo A-I gene in a C57BL genetic background.
Ten transgenic mice expressing the apo A-I gene in a C57BL genetic background (IFFA-CREDO, L'Arbresle, France) were genotyped by PCR and divided into two groups of five animals. The first group received a normal diet for one week while the second was given a diet rich in TCA (taurocholic acid, 0.5% m/m). Blood was collected after a 12 hour fast by retroorbital puncture under barbital anesthesia. Serum samples were collected and stored at −20° C. pending analysis. After one week of dietary treatment, animals were sacrificed and liver specimens were collected and frozen for analysis. Human apo A-I levels in serum were measured before and after the diet as previously described (Peters, J. Biol. Chem., 1997, 272 (43): 27307-12). Serum cholesterol and lipid profiles after FPLC were measured as previously described (Raspé et al., J. Lipid Res., 1999, 40 (11): 2099-2110). Total RNA was extracted from liver specimens as previously described (Chomczynski et al., Anal. Biochem., 1987, 162 (1): 156-9) and quantified by Northern Blot hybridization (Peters, 1997) using human apo A-I and 28S as probes (Peters, J. Biol. Chem., 1997, 272 (43): 27307-12).

FXR = biological target: T1, FXR (Homo sapiens, UniProt Q96RI1); details: FIG. 4
T1 sequence (Q96RI1 1-472 isoform Q96RI1-2): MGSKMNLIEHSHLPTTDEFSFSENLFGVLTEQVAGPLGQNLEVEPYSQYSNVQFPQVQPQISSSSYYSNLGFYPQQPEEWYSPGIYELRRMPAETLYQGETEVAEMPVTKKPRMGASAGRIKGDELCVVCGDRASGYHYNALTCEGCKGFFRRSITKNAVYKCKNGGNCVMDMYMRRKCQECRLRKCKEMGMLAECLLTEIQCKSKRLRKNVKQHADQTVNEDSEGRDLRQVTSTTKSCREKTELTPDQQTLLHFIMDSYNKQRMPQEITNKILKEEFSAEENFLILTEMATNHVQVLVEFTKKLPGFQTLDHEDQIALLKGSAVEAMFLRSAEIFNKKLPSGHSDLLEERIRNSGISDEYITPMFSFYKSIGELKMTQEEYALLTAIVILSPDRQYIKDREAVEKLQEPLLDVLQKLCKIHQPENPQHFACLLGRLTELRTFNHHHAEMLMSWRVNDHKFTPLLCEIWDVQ

[6] = tested on: FXR (hFXR) (Homo sapiens); test: cell_activity; details: 1 µM GW4064, HepG2
[7] = overexpression of hFXR and mRXRα, CDCA, 36 hours
[8] = overexpression of hFXR, panel A
[9] = hFXR overexpression, 1 μM GW4064, in words

## C[C@H](CCC(=O)O)[C@H]1CC[C@H]2[C@@H]3[C@H](O)C[C@@H]4C[C@H](O)CC[C@]4(C)[C@H]3CC[C@]12C [CDCA, chenodeoxycholic acid]
[1]; 50 μM
  apo A-I expression in HepG2 cells: considerably reduces
[1]; CDCA 50 μM, 12-h preincubation with actinomycin D (5 g/ml)
  effect on apo A-I expression after actinomycin D preincubation: offset
[1]; increasing concentrations
  apo A-I expression in HepG2 cells: reduce
Human apo A-I promoter; [7]
  activity of fragment −40/+91 (minimal promoter) of the apo A-I gene promoter: not
  activity of fragment −192/+91 of the apo A-I gene promoter: represses
  activity of fragment −254/+91 of the apo A-I gene promoter: represses
Human apo A-I promoter; overexpression of hFXR, CDCA
  activity of fragment −254/+91 with site A mutated (A mut construct): represses
  activity of wild type fragment −254/+91 (wt construct): represses
Human apo A-I promoter; [8]
  activity of fragment −254/+91 with site C mutated (C mut construct): transcriptional activation
  activity of fragment −254/+91 with sites A and C mutated (AC mut construct): loss of response
[2]; overexpression of hFXR, CDCA
  activity of construct C3TK: represses
[3]; overexpression of hFXR, CDCA
  activity of construct A3TK: activated
[4]
  activity of construct TkpGL3: not affected

## CC(C)c1onc(-c2c(Cl)cccc2Cl)c1COc1ccc(/C=C/c2cccc(C(=O)O)c2)c(Cl)c1 [GW4064]
[1]; GW4064, in words
  apo A-I expression in HepG2 cells: markedly reduces
Human apo A-I promoter; [9]
  activity of fragment −254/+91 of the human apo A-I promoter (construct ABC): represses
[2]; [9]
  activity of construct C3TK: represses
[3]; hFXR overexpression, GW4064, in words
  activity of construct A3TK: activated

## C[C@H](CCC(=O)NCCS(=O)(=O)O)[C@H]1CC[C@H]2[C@@H]3[C@H](O)C[C@@H]4C[C@H](O)CC[C@]4(C)[C@H]3C[C@H](O)[C@]12C [TCA, taurocholic acid]
[5]
  hepatic expression of apo A-I: reduces
  plasma concentrations of apo A-I: reduces
  plasma concentrations of cholesterol: reduces
[1]; increasing concentrations
  apo A-I expression in HepG2 cells: reduce
FXR
  FXR activation: activate

## apo A-I promoter -254/+91
[6]; construct ABC, repression
  activity (% of control luciferase): 56.8

## apo A-I promoter site A wt
[6]; A3TK, three copies, activation
  activity (% of control luciferase): 1120

## apo A-I promoter site C wt
[6]; C3TK, three copies, repression
  activity (% of control luciferase): 61.8

Reference: patent US20040115666A1, “Method for identifying compounds modulating reverse cholesterol transport” (priority 2001, published 2004)
